Assays:
[1] = test system: NADH oxidase (complexes I, III and IV); experiment: NADH oxidase activity (complexes I, III and IV) in submitochondrial particles; assay type: biochemical, bovine
FRDA lymphocytes = experiment: Suppression of lipid peroxidation (C11-BODIPY581/591, FACS) in FRDA lymphocytes treated with diethyl maleate; assay type: cell-based; settings: Lymphocyte, DEM, read-out: Scavenging activity (%), suppression of lipid peroxidation
Source text: Several methods for assaying lipid peroxidation in vitro have been developed (Kuypers et al. (1987) Biochim Biophys Acta. 25, 266-274; Pap et al. (1999) FEBS Lett. 453, 278-282; Drummen et al. (2002) Free RadicBiol Med. 33, 473-490). Almost all of these methods are based on inhibition of free radical-induced oxidation reactions. A widely used fluorescence assay for lipid peroxidation uses lipid soluble cis-parinaric acid as a probe. cis-parinaric acid loses its fluorescence (λexc/em: 320/432 nm) upon interaction with peroxyl radicals and retains its fluorescence in the presence of radical quenchers. cis-parinaric acid is, however, air sensitive, photolabile and absorbs light in the UV region of the spectrum (at ˜320 nm). […] In practical terms, the results obtained using cis-parinaric as a probe for lipid peroxidation are confounded due to the overlapping of the compounds emission spectra with the cis-parinaric emission spectrum. C11-BODIPY^581/591 Oxidation to Measure Lipid Peroxidation To overcome the problem of spectral overlap using cis-parinaric acid, a fluorescence assay for lipid peroxidation using a lipophilic probe belonging to the BODIPY class of fluorescent dyes was used C11-BODIPY^581/591 (4,4-difluoro-5(4-phenyl-1,3-butadienyl)-4-bora-3a, 4a-diaza-s-indacene-3-propionic acid) fluorescent shifts from red to green upon oxidation. C11-BODIPY^581/591 (Molecular Probes, Eugene, Oreg., USA) stock solution concentrations were determined by measuring the absorption of C11-BODIPY^581/591 at 582 nm using a molar extinction coefficient of 140,000 mol^−1 cm^−1 (R. P. Haugland, (1999) Handbook of Fluorescent Probes and Research Chemicals, Molecular Probes, Inc., Eugene, Oreg.). The lipid peroxidation inducer 2,2′-Azobis (2-amidino-propane dihydrochloride) (AAPH) and the antioxidant compound α-tocopherol (α-TOH) were obtained from Sigma (St. Louis, Mo., USA). Phospholipid bilayers were prepared from 1-stearoyl-2-oleoyl-phosphatidylcholine (SOPC) and 1,2-dilinoleoyl-phosphatidylcholine (DLPC) and were purchased from Avanti® polar lipids, Inc., (Alabaster, Ala., USA). Preparation of Liposomes Phosphotidylcholine (PC) liposomes were prepared as described before (Guey-Shuang et al. (1982) Lipids. 17, 403-413). Briefly, DLPC (25 mg) were dissolved in chloroform and the solvent was removed by nitrogen evaporation (˜2 hours) to give a thin film of PC in a round bottom flask. The lipid film was hydrated with 50 mL of 10 mM Tris-HCl (pH 7.4), 100 mM KCl, shaken and sonicated for 15 seconds. The liposomes obtained were filtered several times through […] membrane filter. Measurement of C11-BODIPY^581/591 Oxidation C11-BODIPY^581/591 was incorporated into liposomes and oxidized by peroxyl radicals derived from the decomposition of AAPH in the presence and absence of compounds. Liposomes (1 mg/mL), suspended in 10 mM Tris-HCl (pH 7.4), 100 mM KCl, were transferred to a quartz 1 mL cuvette and placed in a Varian Cary Eclipse fluorometer (Varian, Cary, N.C.) equipped with a thermostatted cuvette holder at 40° C. Liposomes were pre-incubated for 10 min with 200 nM C11-BODIPY^581/591 to allow their incorporation into the lipid phase of the liposomes. After the addition of AAPH (10 mM) the decay of the red fluorescence was followed at λ exc=570 nm, λ em=600 nm. Relative fluorescence units were normalized to 100% intensity. Results obtained were verified by repeating experiments N=3 independent experiments. Measurement of C11-BODIPY^581/591 Oxidation in Cell Culture A quantitative FACS analysis of lipid peroxidation of FRDA lymphocytes, which had been treated with diethyl maleate following incubation in the presence and absence of the test compounds, was measured as described (Khdour et al. (2011) Pharmaceut. Res. 28, 2896-2909). Briefly, FRDA lymphocytes (5×10^5 cell/mL) were treated with the test compounds at final concentrations of 5 and 10 μM and incubated at 37° C. for 16 h in a humidified atmosphere containing 5% CO2 in air. […]

[2] = test system: Friedreich's ataxia lymphoblast cell line GM15850; experiment: Cytoprotection (trypan blue exclusion assay) of DEM-treated FRDA lymphocytes; assay type: cell-based; settings: Homo sapiens, GM15850, DEM alone 18 ± 10% viability, read-out: Cytoprotection (cell viability, % of untreated control)
How it was run: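 GM15850 FRDA lymphoblasts at 5×10^5 cells/mL pre-incubated with test compounds for 17 h at 37 °C, then exposed to 5 mM DEM to deplete GSH. Viability by 0.4% trypan blue exclusion, ≥500 cells counted per group, expressed as % of non-DEM control; means±S.E.M., n=3.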

Compound	NADH oxidase activity (Complex I, III, IV) % ([1]; 1 μM)	NADH oxidase activity (Complex I, III, IV) % ([1]; 5 μM)	inhibition at 5 µM (FRDA lymphocytes) [%]	inhibition at 10 µM (FRDA lymphocytes) [%]	viability at 0.5 µM [2] [%]	viability at 1 µM [2] [%]	viability at 2.5 µM [2] [%]	viability at 5 µM [2] [%]	NADH oxidase activity (Complex I, III, IV) % ([1]; 10 μM) [%]	inhibition at 1 µM (FRDA lymphocytes; 1 μM) [%]	viability at 0.1 µM ([2]; 0.1 μM) [%]
CCCCCCCCCCCCCC1=C(OC)C(=O)C=C(NCCCC(=O)OC(C)(C)C)C1=O [Compound 7, tert-butyl 4-(4-methoxy-3,6-dioxo-5-tridecylcyclohexa-1,4-dienylamino)butanoate]	84 ± 1.0%	77 ± 4.0%	72 ± 1.8	86	80	80	84 ± 5	93 ± 4	–	–	–
CCCCCCCCCCCCCC1=C(OC)C(=O)C=C(NCCCC(=O)OCCCCCC)C1=O [Compound 18, Hexyl 4-(4-methoxy-3,6-dioxo-5-tridecylcyclohexa-1,4-dienylamino)butanoate]	54 ± 5.0%	27 ± 3.0%	81 ± 1.6	98	–	–	–	90 ± 2	–	–	–
COC1=C2CCCCCCCCCCCCCCCNC(=CC1=O)C2=O [Compound 40]	95 ± 3^ %	85 ± 1^ %	72	83	69 ± 2.3	–	83	92 ± 3.5	70 ± 1	29 ± 4.7	36 ± 4.3
CCCCCCCCCCCCCC1=C(OC)C(=O)C(C)=C(NCCCC(=O)OC(C)(C)C)C1=O [Compound 43, tert-butyl 4-(4-methoxy-2-methyl-3,6-dioxo-5-tridecylcyclohexa-1,4-dienylamino)butanoate]	87 ± 2^ %	85 ± 1^ %	61 ± 4	75 ± 2	–	67 ± 5	–	91 ± 6	80 ± 1	–	–
CCCCCCCCCCCCCC1=C(OC)C(=O)C(C)=C(NCCCC(=O)OCCCC)C1=O [Compound 46, Butyl 4-(4-methoxy-2-methyl-3,6-dioxo-5-tridecylcyclohexa-1,4-dienylamino)butanoate]	86 ± 2^ %	84 ± 4^ %	60 ± 1	70 ± 3	–	63 ± 4	–	95 ± 3	68 ± 1	–	–
CCCCCCCCCCCCCC1=C(OC)C(=O)C(C)=C(NCCCC(=O)OCCCCCC)C1=O [Compound 49, Hexyl 4-(4-methoxy-2-methyl-3,6-dioxo-5-tridecylcyclohexa-1,4-dienylamino)butanoate]	74 ± 2^ %	83 ± 2^ %	8 ± 3	13 ± 3	–	16 ± 4	–	87 ± 4	74 ± 2	–	–
CCCCCCCCCCCCCC1=C(NCCCC(=O)OCCCCCC)C(=O)C(C)=C(NCCCC(=O)OCCCCCC)C1=O [Compound 50, 2,5-bis(hexyl 4-aminobutanoate)-3-methyl-6-tridecylcyclohexa-2,5-diene-1,4-dione]	85 ± 1^ %	78 ± 6^ %	18 ± 1	23 ± 4	–	11 ± 2	–	91 ± 3	70 ± 3	–	–
